Molecular target: T1, Mtb Pck (Mycobacterium tuberculosis, UniProt P9WIH3)
T1 construct: gene pckG
Assay: biochemical

T1 sequence (P9WIH3 whole entry): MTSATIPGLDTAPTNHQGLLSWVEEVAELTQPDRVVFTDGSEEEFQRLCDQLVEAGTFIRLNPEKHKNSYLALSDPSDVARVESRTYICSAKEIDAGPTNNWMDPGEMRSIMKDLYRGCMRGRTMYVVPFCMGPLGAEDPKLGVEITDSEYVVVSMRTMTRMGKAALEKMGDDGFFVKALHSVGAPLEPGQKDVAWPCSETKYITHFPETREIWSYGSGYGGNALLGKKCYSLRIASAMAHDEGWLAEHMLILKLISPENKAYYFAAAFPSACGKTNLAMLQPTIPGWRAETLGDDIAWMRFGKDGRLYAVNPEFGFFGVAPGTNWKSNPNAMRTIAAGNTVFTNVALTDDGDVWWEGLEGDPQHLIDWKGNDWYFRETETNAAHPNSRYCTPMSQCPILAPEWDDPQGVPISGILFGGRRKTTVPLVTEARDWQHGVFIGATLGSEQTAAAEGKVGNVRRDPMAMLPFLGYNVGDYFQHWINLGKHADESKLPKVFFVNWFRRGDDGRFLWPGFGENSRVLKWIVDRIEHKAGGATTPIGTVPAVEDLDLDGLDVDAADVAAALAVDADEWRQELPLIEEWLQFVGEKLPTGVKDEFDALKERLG

Nc1nc2c(ncn2[C@@H]2O[C@H](COP(=O)(O)OP(=O)(O)OP(=O)(O)O)[C@@H](O)[C@H]2O)c(=O)[nH]1 [GTP] showed a Kd of 7.3 µM.
